{"source": "patent US5239083A", "about": "“Indole derivatives which inhibit steroid 5α reductase” (Kyowa Hakko Kogyo Co., Ltd., priority 1991, dated 1993)", "key": {"male dd mice": {"tested_on": "male dd mice", "test": "Acute Toxicity Test (oral, mice)", "type": "in vivo", "conditions": "oral 300 mg/kg, mortality observed seven days after administration", "procedure": "Test compounds (300 mg/kg) were orally administered to male dd mice weighing 20±1 g (each group consists of three animals). Minimum lethal dose (MLD) was determined by observing mortality seven days after the administration."}, "steroid 5α-reductase": {"tested_on": "steroid 5α-reductase", "test": "Inhibition effects on steroid 5α-reductase activity (rat prostate enzyme, [4-14C]-testosterone)", "type": "biochemical, male rats", "conditions": "pH 6.5, 37° C., 20 minutes", "procedure": "The measurements of inhibition effects of test compounds on steroid 5α-reductase activity were performed according to the method described by Liang et al. [J. Biol. Chem., 259, 734 (1984)] as follows.\nThe prostates from male rats were homogenated in three tissue volumes of 20 mM sodium phosphate buffer (pH 6.5; containing 0.32M sucrose and 1 mM dithiothreitol). The homogenate was centrifuged at 140,000 X g for one hour. The precipitate was suspended in the buffer described above and the suspension was centrifuged at 140,000 X g for one hour. The precipitate was resuspended in the buffer described above and the solution (30-50 mg protein/ml) was used as enzyme in following assay.\n[4-^14 C]-testosterone (1.5 nmol), NADPH (75 nmol), the enzyme (1 mg protein) and test compound in a total volume of 0.5 ml of 40 mM sodium phosphate buffer [pH 6.5, containing 1 mM dithiothreitol] was incubated at 37° C. After 20 minutes the enzyme activity was stopped by the addition of 2 ml of ethyl acetate. The mixture was then centrifuged at 1,000 g, for 5 minutes. The ethyl acetate layer was transferred to another tube and evaporated to dryness. The steroids were taken up in 50 μl of ethyl acetate and separated by thin layer chromatography (TLC) on silica gel in a developing solvent (ethyl acetate: cyclohexane=1:1). The radioactivity of testosterone and dihydrotestosterone on the TLC plate was measured by a TLC scanner."}}, "data": [{"compound": "4-{2-[3-[1-(1-butylpentyl)indol-5-yl]isocrotonoyl amino]phenoxy}butyric acid [Compound 20]", "values": [{"measurement": "Acute toxicity (MLD), minimum lethal dose", "setting": "male dd mice", "result": "> 300", "unit": "mg/kg"}, {"measurement": "inhibition rate (%), 10^-7 M", "setting": "steroid 5α-reductase", "result": 79, "unit": "%"}]}, {"compound": "C/C(=C\\C(=O)Nc1ccccc1OCCCC(=O)O)c1ccc2c(ccn2C(c2ccccc2)c2ccccc2)c1", "note": "[Compound 2, 4-{2-[3-(1-benzhydrylindol-5-yl)isocrotonoylamino]phenoxy}butyric acid]", "values": [{"measurement": "Acute toxicity (MLD), minimum lethal dose", "setting": "male dd mice", "result": "> 300", "unit": "mg/kg"}, {"measurement": "inhibition rate (%), 10^-7 M", "setting": "steroid 5α-reductase", "result": 95, "unit": "%"}]}, {"compound": "CCCCCn1ccc2cc(/C(C)=C/C(=O)Nc3ccccc3OCCCC(=O)O)ccc21", "note": "[Compound 6, 4-{2-[3-(1-pentylindol-5-yl)isocrotonoylamino]phenoxy}butyric acid]", "values": [{"measurement": "Acute toxicity (MLD), minimum lethal dose", "setting": "male dd mice", "result": "> 300", "unit": "mg/kg"}, {"measurement": "inhibition rate (%), 10^-7 M", "setting": "steroid 5α-reductase", "result": 81, "unit": "%"}]}, {"compound": "CCCC(C)n1ccc2cc(/C(C)=C/C(=O)Nc3ccccc3OCCCC(=O)O)ccc21", "note": "(centres unmarked) [Compound 16, 4-{2-[3-[1-(1-methylbutyl)indol-5-yl]isocrotonoylamino]phenoxy}butyric acid]", "values": [{"measurement": "Acute toxicity (MLD), minimum lethal dose", "setting": "male dd mice", "result": "> 300", "unit": "mg/kg"}, {"measurement": "inhibition rate (%), 10^-7 M", "setting": "steroid 5α-reductase", "result": 88, "unit": "%"}]}, {"compound": "CCCCC(CC)n1ccc2cc(/C(C)=C/C(=O)Nc3ccccc3OCCCC(=O)O)ccc21", "note": "(centres unmarked) [Compound 18, 4-{2-[3-[1-(1-ethylpentyl)indol-5-yl]isocrotonoylamino]phenoxy}butyric acid]", "values": [{"measurement": "Acute toxicity (MLD), minimum lethal dose", "setting": "male dd mice", "result": "> 300", "unit": "mg/kg"}, {"measurement": "inhibition rate (%), 10^-7 M", "setting": "steroid 5α-reductase", "result": 90, "unit": "%"}]}, {"compound": "CCCC(c1ccccc1)n1ccc2cc(/C(C)=C/C(=O)Nc3ccccc3OCCCC(=O)O)ccc21", "note": "(stereo not drawn) [Compound 41, 4-{2-[3-[1-(α-propylbenzyl)indol-5-yl]isocrotonoylamino]phenoxy}butyric acid]", "values": [{"measurement": "Acute toxicity (MLD), minimum lethal dose", "setting": "male dd mice", "result": "> 300", "unit": "mg/kg"}, {"measurement": "inhibition rate (%), 10^-7 M", "setting": "steroid 5α-reductase", "result": 90, "unit": "%"}]}, {"compound": "CCCCC(c1ccccc1)n1ccc2cc(/C(C)=C/C(=O)Nc3ccccc3OCCCC(=O)O)ccc21", "note": "(stereo not drawn) [Compound 42, 4-{2-[3-[1-(α-butylbenzyl)indol-5-yl]isocrotonoylamino]phenoxy}butyric acid]", "values": [{"measurement": "Acute toxicity (MLD), minimum lethal dose", "setting": "male dd mice", "result": "> 300", "unit": "mg/kg"}, {"measurement": "inhibition rate (%), 10^-7 M", "setting": "steroid 5α-reductase", "result": 89, "unit": "%"}]}, {"compound": "CCCCCC(c1ccccc1)n1ccc2cc(/C(C)=C/C(=O)Nc3ccccc3OCCCC(=O)O)ccc21", "note": "(stereo not drawn) [Compound 43, 4-{2-[3-[1-(α-pentylbenzyl)indol-5-yl]isocrotonoylamino]phenoxy}butyric acid]", "values": [{"measurement": "Acute toxicity (MLD), minimum lethal dose", "setting": "male dd mice", "result": "> 300", "unit": "mg/kg"}, {"measurement": "inhibition rate (%), 10^-7 M", "setting": "steroid 5α-reductase", "result": 74, "unit": "%"}]}, {"compound": "C/C(=C\\C(=O)Nc1ccccc1OCCCC(=O)O)c1ccc2c(ccn2C(c2ccccc2)C(C)C)c1", "note": "(stereo not drawn) [Compound 44, 4-{2-[3-[1-[α-(2-methylethyl)benzyl]indol-5-yl]isocrotonoylamino]phenoxy}butyric acid]", "values": [{"measurement": "Acute toxicity (MLD), minimum lethal dose", "setting": "male dd mice", "result": "> 300", "unit": "mg/kg"}, {"measurement": "inhibition rate (%), 10^-7 M", "setting": "steroid 5α-reductase", "result": 78, "unit": "%"}]}, {"compound": "C/C(=C\\C(=O)Nc1ccccc1OCCCC(=O)O)c1ccc2c(ccn2C2CCCc3ccccc32)c1", "note": "(centres unmarked) [Compound 45, 4-{2-[3-[1-(1,2,3,4-tetrahydro-1-naphthyl)indol-5-yl]isocrtonoylamino]phenoxy}butyric acid]", "values": [{"measurement": "Acute toxicity (MLD), minimum lethal dose", "setting": "male dd mice", "result": "> 300", "unit": "mg/kg"}, {"measurement": "inhibition rate (%), 10^-7 M", "setting": "steroid 5α-reductase", "result": 77, "unit": "%"}]}, {"compound": "C/C(=C\\C(=O)Nc1ccccc1OCCCC(=O)O)c1ccc2c(ccn2C(c2ccccc2)c2ccccc2C)c1", "note": "(centres unmarked) [Compound 52]", "values": [{"measurement": "Acute toxicity (MLD), minimum lethal dose", "setting": "male dd mice", "result": "> 300", "unit": "mg/kg"}, {"measurement": "inhibition rate (%), 10^-7 M", "setting": "steroid 5α-reductase", "result": 90, "unit": "%"}]}, {"compound": "C/C(=C\\C(=O)Nc1ccccc1OCCCC(=O)O)c1ccc2c(ccn2C(c2ccccc2)c2ccc(C)cc2)c1", "note": "(centres unmarked) [Compound 53]", "values": [{"measurement": "Acute toxicity (MLD), minimum lethal dose", "setting": "male dd mice", "result": "> 300", "unit": "mg/kg"}, {"measurement": "inhibition rate (%), 10^-7 M", "setting": "steroid 5α-reductase", "result": 84, "unit": "%"}]}, {"compound": "C/C(=C\\C(=O)Nc1ccccc1OCCCC(=O)O)c1ccc2c(ccn2C(c2ccc(C)cc2)c2ccc(C)cc2)c1", "note": "[Compound 54, 4-{2-[3-[1-(4,4'-dimethylbenzhydryl)indol-5-yl]isocrotonoylamino]phenoxy}butyric acid]", "values": [{"measurement": "Acute toxicity (MLD), minimum lethal dose", "setting": "male dd mice", "result": "> 300", "unit": "mg/kg"}, {"measurement": "inhibition rate (%), 10^-7 M", "setting": "steroid 5α-reductase", "result": 89, "unit": "%"}]}]}
